In patent US20240360157A1, “TYK2 INHIBITORS” (BIOGEN MA INC., priority 2021, published 2024):

What was measured:
Assay type in all cases: biochemical
[1] = target: human JAK1 catalytic kinase (JH1) domain (Homo sapiens (Human), UniProt P23458); experiment: ADP-Glo Kinase Assay, recombinant JAK1 catalytic kinase (JH1) domain; settings: recombinant JH1 domain 4 nM, 35 μM ATP, JAK3-342 peptide, mean, read-out: JAK1 biochem IC50 (nM) Mean
In short: (§1)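 Luminescent ADP read-out after residual ATP depletion, 100 min reaction. Kinase domain concentrations were 4 nM (JAK1), 0.2 nM (JAK2), 0.3 nM (JAK3) and 2 nM (TYK2), each with 50 μM peptide. IC50 values came from 4-parameter logistic fits over 11 points, 3-fold steps, top 10 μM or 1 μM.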

[2] = target: human JAK2 catalytic kinase (JH1) domain (Homo sapiens (Human), UniProt O60674); experiment: ADP-Glo Kinase Assay, recombinant JAK2 catalytic kinase (JH1) domain; settings: recombinant JH1 domain 0.2 nM, 15 μM ATP, JAK3-974 peptide, mean, read-out: JAK2 biochem IC50 (nM) Mean
In short: as §1

[3] = target: human JAK3 catalytic kinase (JH1) domain (Homo sapiens (Human), UniProt P52333); experiment: ADP-Glo Kinase Assay, recombinant JAK3 catalytic kinase (JH1) domain; settings: recombinant JH1 domain 0.3 nM, 4 μM ATP, JAK3-974 peptide, mean, read-out: JAK3 biochem IC50 (nM) Mean
In short: as §1

[4] = target: human TYK2 catalytic kinase (JH1) domain (Homo sapiens (Human), UniProt P29597); experiment: ADP-Glo Kinase Assay, recombinant TYK2 catalytic kinase (JH1) domain; settings: recombinant JH1 domain 2 nM, 10 μM ATP, JAK3-974 peptide, mean, read-out: TYK2 biochem IC50 (nM) Mean
In short: as §1

Chain of human JAK1 catalytic kinase (JH1) domain (P23458 875-1153): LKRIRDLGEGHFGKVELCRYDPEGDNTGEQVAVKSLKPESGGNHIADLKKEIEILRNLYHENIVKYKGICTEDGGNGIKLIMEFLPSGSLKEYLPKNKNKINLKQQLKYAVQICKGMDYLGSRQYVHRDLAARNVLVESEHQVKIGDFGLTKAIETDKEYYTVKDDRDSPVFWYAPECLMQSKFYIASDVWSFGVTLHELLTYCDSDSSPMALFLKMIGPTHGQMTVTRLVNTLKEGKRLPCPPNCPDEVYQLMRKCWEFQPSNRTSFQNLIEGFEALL
Chain of human JAK2 catalytic kinase (JH1) domain (O60674 849-1124): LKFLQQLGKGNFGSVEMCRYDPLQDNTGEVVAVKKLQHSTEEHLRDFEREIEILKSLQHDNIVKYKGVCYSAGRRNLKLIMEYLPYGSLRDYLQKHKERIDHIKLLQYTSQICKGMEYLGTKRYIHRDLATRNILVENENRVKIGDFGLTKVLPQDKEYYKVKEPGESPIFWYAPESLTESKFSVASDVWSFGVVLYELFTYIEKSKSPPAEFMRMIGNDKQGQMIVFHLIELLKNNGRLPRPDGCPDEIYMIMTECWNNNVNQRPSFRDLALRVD
Chain of human TYK2 catalytic kinase (JH1) domain (P29597 897-1176): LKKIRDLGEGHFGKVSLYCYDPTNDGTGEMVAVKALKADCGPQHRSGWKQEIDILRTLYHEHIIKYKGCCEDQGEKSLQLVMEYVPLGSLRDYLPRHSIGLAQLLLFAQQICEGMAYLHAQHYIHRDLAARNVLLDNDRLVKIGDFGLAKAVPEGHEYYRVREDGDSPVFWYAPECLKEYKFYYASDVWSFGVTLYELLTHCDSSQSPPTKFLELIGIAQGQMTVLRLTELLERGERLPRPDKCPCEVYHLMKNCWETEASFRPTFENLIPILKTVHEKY
Chain of human JAK3 catalytic kinase (JH1) domain (P52333 822-1111): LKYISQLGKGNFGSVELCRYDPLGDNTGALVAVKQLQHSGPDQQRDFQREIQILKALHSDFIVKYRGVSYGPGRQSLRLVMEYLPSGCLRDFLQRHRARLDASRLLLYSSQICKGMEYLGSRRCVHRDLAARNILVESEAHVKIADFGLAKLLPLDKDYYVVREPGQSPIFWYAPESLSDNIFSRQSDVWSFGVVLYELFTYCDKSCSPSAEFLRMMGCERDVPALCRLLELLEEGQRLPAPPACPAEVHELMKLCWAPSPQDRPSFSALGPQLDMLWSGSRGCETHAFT

SMILES	IC50 [1]	IC50 [2]	IC50 [3]	IC50 [4]
Cn1cc(-c2cc3c(N4CC5CCC(C4)N5C(=O)[C@@H]4C[C@H]4F)ccnn3c2)ccc1=O [Example 172]	32 nM	54 nM	595 nM	2.6 nM
O=C([C@H]1CC1(F)F)N1C2CCC1CN(c1ncnn3cc(-c4cnn(C(F)F)c4)cc13)C2 (single isomer, unassigned) [Example 77]	1290 nM	1410 nM	8880 nM	46.3 nM
Cn1cc(-c2cc3c(N4CC5CCC(C4)N5S(=O)(=O)C4CC4)ccnn3c2)cn1 [Example 189, 4-(8-(cyclopropylsulfonyl)-3,8-diazabicyclo[3.2.1]octan-3-yl)-6-(1-methyl-1H-pyrazol-4-yl)pyrrolo[1,2-b]pyridazine]	1210 nM	208 nM	1020 nM	46.5 nM
O=C([C@@H]1C[C@H]1F)N1C2CCC1CN(c1ccnn3cc(-c4cnn(C(F)(F)F)c4)cc13)C2 [Example 18, ((1S,2R)-2-fluorocyclopropyl)(3-(6-(1-(trifluoromethyl)-1H-pyrazol-4-yl)pyrrolo[1,2-b]pyridazin-4-yl)-3,8-diazabicyclo[3.2.1]octan-8-yl)methanone]	38 nM	33 nM	391 nM	1.5 nM
N#Cc1cc(-c2cc3c(N4CC5CCC(C4)N5C(=O)[C@@H]4C[C@H]4F)ccnn3c2)ccn1 [Example 104, 4-(4-(8-((1S,2R)-2-fluorocyclopropane-1-carbonyl)-3,8-diazabicyclo[3.2.1]octan-3-yl)pyrrolo[1,2-b]pyridazin-6-yl)picolinonitrile]	46 nM	47 nM	886 nM	3.4 nM
COc1cc(-c2cc3c(N4CC5CCC(C4)N5S(=O)(=O)C4CC4)ccnc3[nH]2)ccn1 [Example 194]	116 nM	80 nM	612 nM	21 nM
O=C(C1CC1)N1C2CCC1CN(c1ncnn3cc(-c4cnn(C(F)F)c4)cc13)C2 [Example 144]	9320 nM	10000 nM	10000 nM	622 nM
O=C([C@@H]1C[C@H]1F)N1C2CCC1CN(c1ccnn3cc(C4CCOC4)cc13)C2 (stereo partly drawn) [Example 175, ((1S,2R)-2-fluorocyclopropyl)(3-(6-(tetrahydrofuran-3-yl)pyrrolo[1,2-b]pyridazin-4-yl)-3,8-diazabicyclo[3.2.1]octan-8-yl)methanone]	≥ 10000 nM	≥ 10000 nM	≥ 10000 nM	847 nM
Cc1cc(-c2cc3c(N4CC5CCC(C4)N5C(=O)[C@@H]4C[C@H]4F)ccnn3c2)on1 [Example 173]	81 nM	37 nM	793 nM	2.4 nM
Cn1cc(-c2cc3c(N4CC5CCC(C4)N5C(=O)C4(F)CC4)ncnn3c2)cn1 [Example 64, (1-fluorocyclopropyl)(3-(6-(1-methyl-1H-pyrazol-4-yl)pyrrolo[2,1-f][1,2,4]triazin-4-yl)-3,8-diazabicyclo[3.2.1]octan-8-yl)methanone]	1150 nM	5210 nM	1110 nM	289 nM
Cn1cc(-c2cc3c(N4CC5CCC(C4)N5C(=O)[C@@H]4CC4(F)F)ncnn3c2)cn1 [Example 83, ((S)-2,2-difluorocyclopropyl)(3-(6-(1-methyl-1H-pyrazol-4-yl)pyrrolo[2,1-f][1,2,4]triazin-4-yl)-3,8-diazabicyclo[3.2.1]octan-8-yl)methanone]	652 nM	5730 nM	1640 nM	333 nM
O=C([C@H]1C[C@@H]1CO)N1C2CCC1CN(c1ncnn3cc(-c4cnn(C(F)F)c4)cc13)C2 (single isomer, unassigned) [Example 39]	2130 nM	9090 nM	6380 nM	762 nM
CCn1ncc(-c2cc3c(N4CC5CCC(C4)N5C(=O)C4CC4)ncnn3c2)c1F [Example 161]	492 nM	2460 nM	1230 nM	120 nM
Cn1cc(-c2cc3c(N4CC5CCC(C4)N5C(=O)CC#N)ccnn3c2)cn1 [Example 23, 3-(3-(6-(1-methyl-1H-pyrazol-4-yl)pyrrolo[1,2-b]pyridazin-4-yl)-3,8-diazabicyclo[3.2.1]octan-8-yl)-3-oxopropanenitrile]	137 nM	117 nM	346 nM	9.8 nM
N#Cc1cccc(-c2cc3c(N4CC5CCC(C4)N5C(=O)C4CC4)ncnn3c2)c1 [Example 176]	3560 nM	10000 nM	9890 nM	830 nM
Cn1cc(-c2cc3c(N4CC5CCC(C4)N5S(=O)(=O)C4CC4)ccnc3[nH]2)cn1 [Example 193]	200 nM	36 nM	199 nM	10.1 nM
COc1nn(C)cc1-c1cc2c(N3CC4CCC(C3)N4C(=O)[C@@H]3C[C@H]3F)ccnn2c1 [Example 134, ((1S,2R)-2-fluorocyclopropyl)(3-(6-(3-methoxy-1-methyl-1H-pyrazol-4-yl)pyrrolo[1,2-b]pyridazin-4-yl)-3,8-diazabicyclo[3.2.1]octan-8-yl)methanone]	114 nM	24 nM	588 nM	1.4 nM
O=C([C@H]1C[C@@H](C(F)(F)F)C1)N1C2CCC1CN(c1ncnn3cc(-c4cnn(C(F)F)c4)cc13)C2 [Example 29, (3-(6-(1-(difluoromethyl)-1H-pyrazol-4-yl)pyrrolo[2,1-f][1,2,4]triazin-4-yl)-3,8-diazabicyclo[3.2.1]octan-8-yl)((1s,3s)-3-(trifluoromethyl)cyclobutyl)methanone]	774 nM	4250 nM	7470 nM	238 nM
O=C(C1CCC1F)N1C2CCC1CN(c1ncnn3cc(-c4cnn(C(F)F)c4)cc13)C2 (stereo not shown) [Example 9, (3-(6-(1-(difluoromethyl)-1H-pyrazol-4-yl)pyrrolo[2,1-f][1,2,4]triazin-4-yl)-3,8-diazabicyclo[3.2.1]octan-8-yl)(2-fluorocyclobutyl)methanone]	3080 nM	5700 nM	5780 nM	202 nM
O=C([C@@H]1C[C@H]1F)N1C2CCC1CN(c1ccnc3[nH]c(C4(F)CC4)nc13)C2 [Example 210, ((1S,2R)-2-fluorocyclopropyl)(3-(2-(1-fluorocyclopropyl)-3H-imidazo[4,5-b]pyridin-7-yl)-3,8-diazabicyclo[3.2.1]octan-8-yl)methanone]	798 nM	2600 nM	5520 nM	398 nM
O=C(C1C[C@H]1F)N1C2CCC1CN(c1ncnc3[nH]c(-c4ccncc4F)cc13)C2 (stereo partly shown) [Example 232]	226 nM	322 nM	848 nM	13.1 nM
Cn1ncc(-c2cc3c(N4CC5CCC(C4)N5C(=O)C4(F)CC4)ccnc3[nH]2)c1F [Example 242, (3-(2-(5-fluoro-1-methyl-1H-pyrazol-4-yl)-1H-pyrrolo[2,3-b]pyridin-4-yl)-3,8-diazabicyclo[3.2.1]octan-8-yl)(1-fluorocyclopropyl)methanone]	362 nM	690 nM	296 nM	113 nM
